Measurements taken from US10894037B2, “Inhibitors of bacterial two component signal transduction system and uses thereof” (priority 2017, dated 2021).

Legend:
Type in all cases: binding
PmrA-DNA complex [1] = target: PmrA-DNA complex (Klebsiella pneumoniae, UniProt W9BNR5, I220D/W181G); experiment: Fluorescence polarization (FP) assay of inhibition of PmrA-DNA complex formation; settings: read-out: inhibition of PmrA binding to DNA (PmrA-DNA complex formation)
Procedure: (§1) Fluorescence Polarization (FP) Measurements
(§2) Compounds, E1-E5, were purchased from InterBioScreen (Moscow, Russia) (E1: STOCK1S-95047; E2: STOCK1N-13224; E3: STOCK1N-16691; E4: STOCK 1 S-43938; E5: STOCK1S-55283), and the purity are over 90% examined by NMR. The oligonucleotides (5′-[…]-3′, SEQ ID NO: 2) labeled with 6-carboxyfluorescein (6-FAM) at the 5′-position, was dissolved in 10 mM sodium phosphate and 15 mM NaCl pH 7.0 for fluorescence polarization experiments. About 10 μl activated PmrA (prepared in 10 mM sodium phosphate and 15 mM NaCl at pH7.0) was first added into the well of ELISA plate. Then, 1 μl of serial diluted inhibitors, E1-E5, (prepared in the sample buffer of activated PmrA) were mixed with the PmrA (final concentration Of 30 μM) to reach the interested concentrations and incubated at 25° C. for 10 mins. Subsequently, 9 μl of 6-FAM-labeled DNA (final concentration of 10 nM) was added into the reaction, incubating at 25° C. for another 10 mins. Reactions were measured 3 times by use of a SpectraMax Paradigm plate reader (Molecular Devices, CA, USA) with excitation wavelength 485 nm and emission wavelength 535 nm. The inhibition % was derived according to the following equation:
(§3) [formula] in which (D), (P+D), and (P+I+D) are the polarization intensity of DNA alone, PmrA with DNA, and PmrA mixed with inhibitor then incubated with DNA, respectively.
(§4) Fluorescence polarization (FP) was first employed to access the inhibitory abilities of E1-E5 against the formation of PmrA-DNA complex in accordance with procedures described in the section of “Materials and Methods.” Results are depicted in FIG. 1, panels E and F, and Table 1.

PmrA-DNA complex [2] = target: PmrA-DNA complex (Klebsiella pneumoniae, UniProt W9BNR5); experiment: as above
Sequence of PmrA-DNA complex (Klebsiella pneumoniae, UniProt W9BNR5) (W9BNR5 whole entry I220D/W181G, one chain of several): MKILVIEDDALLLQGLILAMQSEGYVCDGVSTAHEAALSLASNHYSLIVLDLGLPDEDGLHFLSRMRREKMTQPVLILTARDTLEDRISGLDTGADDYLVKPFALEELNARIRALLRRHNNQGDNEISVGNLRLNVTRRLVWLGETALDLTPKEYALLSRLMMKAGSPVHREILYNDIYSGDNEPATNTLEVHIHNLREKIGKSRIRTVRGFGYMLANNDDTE
Procedure: as §1, §2, §3, §4

[3] = target: T1, PmrAC (C-terminal domain of PmrA) (Klebsiella pneumoniae, UniProt W9BNR5); experiment: Isothermal titration calorimetry (ITC)
T1 sequence (W9BNR5 121-223): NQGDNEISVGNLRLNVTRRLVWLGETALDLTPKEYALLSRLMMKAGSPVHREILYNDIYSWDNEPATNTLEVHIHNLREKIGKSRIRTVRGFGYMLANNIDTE
Procedure: Isothermal Titration Calorimetry (ITC)
The binding affinities of PmrAC with compound, E1, was estimated by ITC using a MicroCal iTC200 microcalorimeter. The sample of PmrAC was prepared in reaction buffer (20 mM sodium phosphate, 100 mM NaCl, pH6.0). Compounds were also prepared in reaction buffer (E1=0.4 mM) and titrated into PmrAC (45 μM) at 25° C. The background heat generated from compound to buffer titration was subtracted, and the corrected heat form the binding reaction of PmrAC to E1 was used to derive the association constant (Ka), the enthalpy of binding (ΔH), the change in Gibbs free energy (ΔG), and the entropy changes ([…]) at 298K. All the data were analyzed by using Origin ITC Analysis (MicroCal Software, Northampton, Mass., USA).
(§5) The binding affinity of E1 toward PmrAC (C-terminal domain of PmrA) was further assessed by Isothermal titration calorimetry (ITC) and Bio-layer interferometer (BLI) at the condition described previously (Lou et al., Nature communication 2015, 6, 8838.) (sodium phosphate buffer pH6.0). According to the ITC results, the interaction of E1 with PmrAC appeared to be an exothermic reaction, with a change in enthalpy (ΔH) of −21.4 kcal/mol, change in entropy (AS) of −45.6 […], and N value of 1.09 (FIG. 2, panel G).

[4] = target: T1, PmrAC (C-terminal domain of PmrA); experiment: Bio-layer interferometry (BLI)
Procedure: Bio-Layer Interferometry (BLI)
The BLI kinetics were obtained by using the ForteBio Octet RED96 instrument (ForteBio, Pall Life Sciences). Recombinant PmrAC carrying C-terminal 6× His tag was immobilized on the HIS1K biosensor in the reaction buffer containing 20 mM sodium phosphate, 100 mM NaCl, pH 6.0 at 25° C. for 180 s prior to kinetic experiment. For the association, the preloading biosensor was exposed to different concentration of E1 (0-37.5 μM) for the period of 300 s. Following the dissociation step, the sensor was subjected to the reaction buffer for 300 s. Kinetic constants, including Kon (association constant, M^−1s^−1) and Koff (dissociation constant, s^−1), were obtained by fitting the reaction model 1:1 kinetics to the reference-subtracted data. The equilibrium dissociation (KD) was calculated as the ratio of Koff to Kon. All calculation was determined using Data Analysis 7 software (ForteBio, Pall Life Sciences).
as §5

[5] = target: T1, PmrAC (C-terminal domain of PmrA); experiment: NMR (2D 1H-15N TROSY-HSQC) compound titration for dissociation constant
Procedure: NMR Spectroscopy and Compound Titrations
The preparations of NMR samples were as described previously (Mscielag and Goldschmidt, Expert opinion on investigational drugs 2000, 9, 2351-2369.). Briefly, the activated and inactivated PmrA (0.3 ml, 0.25 mM) were prepared in pH8.0 buffer (20 mM Tris and 100 mM NaCl) with or without BeF3^− activation. PmrAC (0.3 ml, 0.25 mM) was prepared in pH8.0 buffer (20 mM Tris and 100 mM NaCl). All the protein solutions were further loaded in Shigemi NMR tubes (Shigemi Inc.). NMR experiments for activated/inactivated PmrA and PmrAC were conducted at 310 and 298K on Brucker AVANCE 600 or 800 NMR spectrometers (Bruker, Karlsruhe, Germany) equipped with a triple-resonance cryoprobe including a shielded z-gradient. The hetero-nuclear NMR experiments for backbone assignments were performed as described previously in a review article (Garcia-Calderon et al., Journal of Bacteriology 2007, 189, 6635-6644). All the acquired NMR spectra were processed by using NMRPipe (Chen and Groisman, Annual review of microbiology 2013, 67, 83-112) and analyzed with NMRViewJ8.0a.22 (Wosten et al., Molecular microbiology 2006, 60, 39-50). […] The chemical shift changes were calculated through the equation Δδ=[(ΔδNH)^2+(0.17×ΔδN)^2]^0.5, in which ΔδNH and ΔδN are the chemical shift differences for ^1HN and ^15N, respectively. […]

Sequence of PmrA-DNA complex (Klebsiella pneumoniae, UniProt W9BNR5, I220D/W181G) (W9BNR5 whole entry I220D/W181G, one chain of several): as the sequence (W9BNR5 whole entry I220D/W181G, one chain of several) above

SMILES	inhibition at 50 µM (PmrA-DNA complex [1])	IC50 (PmrA-DNA complex [2])	Kd [3]	Kd [4]	koff ([4]; read-out: Koff rate)	kon ([4]; read-out: Kon rate)	Kd [5]
O=S(=O)(O)c1ccc(-c2ncc(-c3ccc(-c4cnc(-c5ccc(S(=O)(=O)O)cc5)o4)cc3)o2)cc1 [Compound E1]	70.2 ± 3.2%	10.2 ± 2.6 µM	1.7 µM	2.6 ± 0.1 µM	0.251 s⁻¹	94900 M⁻¹ s⁻¹	126 ± 34.6 µM
O=S(=O)(O)CC1CSSCC(CS(=O)(=O)O)SS1 (centres unmarked) [Compound E3]	27.4 ± 1.8%	100 ± 2.5 µM	–	–	–	–	–
O=S(=O)(O)CCOCC1CSSCC(COCCS(=O)(=O)O)SS1 (centres unmarked) [Compound E2]	55.9 ± 2.7%	42.5 ± 2.9 µM	–	–	–	–	–
